From patent US9464064B2, “HCV helicase inhibitors and methods of use thereof” (University of Kansas, priority 2011, dated 2016)
Read-outs that look alike come from different tables or passages of the source.

How the values were obtained:
[1] = target: T1, HCV NS3 helicase NS3h_1b(con1) (Hepatitis C virus genotype 1b, UniProt Q9WMX2); assay: biochemical; format: biochemical, hepatitis C virus genotype 1b(con1)
T1 construct: truncated C-terminally His-tagged NS3 proteins lacking the N-terminal protease, called NS3h; His-tag (C); made in house
From the text: All oligonucleotides were purchased from Integrated DNA Technologies (IDT, Coralville, Iowa). The partially duplex DNA substrates used in MBHAs consisted of a helicase substrate forming 25 base pairs and consists of a 45-mer bottom strand 5′-GCTCCCCGTTCATCGATTGGGGAGC(T)20-3′ (SEQ ID NO:1) and the 25-mer HCV top strand 5′-Cy5-GCTCCCCAATCGATGAACGGGGAGC-IBRQ-3′ (SEQ ID NO:2). The 19 base pair RNA substrate used in MBHAs was composed of a 39 nucleotide long bottom strand 5′-AGU GCC UUG ACG AUA CAG C(U)20-3′ (SEQ ID NO:3) and the 24 nucleotide long top strand 5′-Tye^665-AGUGCGCUGUAUCGUCAAGGCACU-IBRQSp-3′ (SEQ ID NO:4). Underlined areas denote hairpin-forming regions. DNA and RNA substrates were annealed and purified as described previously (Belon & Frick (2008) BioTechniques 45:433-40, 442).
The cloning, expression, and purification of His-tagged recombinant HCV NS3 protein have been described previously (Lam, et al. (20030 J. Virol. 77:3950-61; Heck, et al. (2008) Antimicrob. Agents Chemother. 52:1901-11; Frick et al. (2010) Methods Mol. Biol. 587:223-233; Belon, et al. & Frick (2009) J. Mol. Biol. 388:851-864).
All molecular beacon-based helicase assays (MBHAs) were performed according to known methods (Belon & Frick (2008) supra; Belon & Frick (2009) supra). […] In each flat, black 384-well plate, 56 compounds were tested, in triplicate, along with three negative controls (DMSO only), three positive controls (500 nM dT20), and two wells with no enzyme. Fluorescence was read before ATP (F0) addition and 30 minutes after ATP was added to 1 mM (F30) using a Tecan Infinite M200 fluorescence microplate reader with excitation and emission wavelengths set to 643 and 670 nm, respectively. Percent inhibition was calculated with equation 1, and compound interference in the MBHA was calculated with equation 2.
To monitor helicase reaction kinetics and to calculate IC50 values, MBHAs were performed in 60 μL in white ½ area 96-well plates and measured in a Thermo Varioscan Multimode reader (Thermo Scientific) using the 643 nm excitation wavelength and 667 emission wavelengths. Reactions were again performed by first incubating all components except for ATP for two minutes, then initiated by injecting in 1/10 volume of ATP such that the final concentration of all components was as noted above. Conditions were as described above except that 5% v/v DMSO was present in each assay. Initial reaction velocities were calculated by fitting first-order decay equation to data obtained after ATP addition and calculating an initial velocity form the resulting amplitude and rate constant.
[formula] where, v0 is the velocity observed in DMSO-only controls inhibition, h is the Hillslope coefficient, [I] is the concentration of test compound.

[2] = test system: Huh-7.5 cells; assay: Cell viability assay ([…]-GLO); format: cell-based, human; conditions: for Cell viability (% viable): 10 μM compound, triplicate, average ± SD
Description: To assess compound toxicity toward Huh-7.5 cells, cells were plated and treated as above and cell viability was assessed using the […]-GLO luminescent cell viability kit (PROMEGA) following the manufacturer's instructions. Briefly, at the end of a 72 hour incubation period, the medium was aspirated and the cells were washed with 1×PBS, then an equal volume of growth medium and […]-GLO reagent was added and the lysis was initiated by mixing on an orbital shaker. The plate was incubated at 23° C. for 30 minutes and the luciferase activity was measured for 1 second using the FLUOSTAR Omega microplate reader (BMG Labtech).

[3] = target: T2, E. coli SSB-Cy5-dT15 complex (Escherichia coli, UniProt P0AGE0); assay: Escherichia coli SSB Cy5-dT15 binding assay (fluorescence polarization); conditions: for inhibition at 100 µM: read-out: SSB % Displaced @ 100 μM; for EC50: read-out: SSB EC50; for IC50: disruption of Cy5-dT15-SSB complex, read-out: Cy5-dT15-SSB Binding IC50
T2 construct: purchased Promega
Description: The Escherichia coli SSB assay was performed in a total volume of 20.2 μl in 384-well, flat-bottom, low volume, black microplates (Greiner Bio-One). First, 20 μl of a assay solution (5 nM Cy5-[…]-3′ (Cy5-dT15, SEQ ID NO:5), 20 nM E. coli SSB (Promega), 25 mM MOPS, pH 7.5, 1.25 mM MgCl2, 0.0025 mg/ml BSA, 0.005% (v/v) TWEEN 20 and 0.025 mM DTT) was dispensed in each well, then 0.2 μl of dimethylsulfoxide (DMSO) or compound dissolved in DMSO was added by pin transfer, such that the final concentration of DMSO was 1% (v/v) in each assay.
For IC50 determination, assays were performed with 60 μl total volume in black flat bottomed 384-well microplates (Corning). First, 3.0 μl of DMSO or compound dissolved in DMSO was added, such that the final concentration of DMSO was 5% (v/v) in each assay. Then 57 μl of a assay solution (5 nM Cy5-dT15, 20 nM SSB, 25 mM MOPS, pH 7.5, 1.25 mM MgCl2, 0.0025 mg/ml BSA, 0.005% (v/v) TWEEN 20 and 0.025 mM DTT) was dispensed in each well. Polarization was monitored with a TECAN Infinite M1000 PRO multi-mode microplate reader by exciting at 635 nm (5 nm bandwidth) and measuring total fluorescence intensity, parallel and perpendicular polarized light at 667 nm (20 nm bandwidth).

[4] = test system: MBHA DNA substrate; assay: Modified FID assay, SYBR Green I; format: binding; conditions: for DNA binding (%): SYBR Green I-FID, average (±SD) percent bound at 100 μM
Description: A modified FID assay, in which ethidium bromide was replaced with SYBR Green I (Invitrogen), was used to estimate a compounds affinity for the MBHA substrate. Reactions were performed as described above except that the DNA substrate was present at 0.32 μM, ethidium bromide was absent, and SYBER Green was present at (0.68 μM). Data were normalized as described above and fit to concentration-response equation using GraphPad Prism software. Titrations with each compound were performed in triplicate, and EC50 values from three independent titrations are reported ±standard deviations.

[5] = genotype 1b (con1), read-out: Target Potency MBHA (IC50 avg., μM) 1b (con1)
[6] = MBHA, DNA unwinding, mean ± SD of three titrations, read-out: Helicase IC50
[7] = standard HCV helicase MBHA (Table 9), read-out: DNA Unwinding IC50
[8] = SYBR Green, read-out: FID (SG) EC50 (converted)
[9] = DNA-based MBHA, genotype 1b, read-out: DNA Helicase NS3h_1b IC50 (μM) ± SD

T2 sequence (P0AGE0 2-178, one chain of several): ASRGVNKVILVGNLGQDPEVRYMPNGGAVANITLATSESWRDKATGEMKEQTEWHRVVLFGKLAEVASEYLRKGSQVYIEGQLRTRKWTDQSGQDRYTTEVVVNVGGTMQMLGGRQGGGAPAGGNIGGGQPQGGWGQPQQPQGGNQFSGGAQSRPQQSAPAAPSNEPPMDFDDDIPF
T1 sequence (Q9WMX2 1192-1657): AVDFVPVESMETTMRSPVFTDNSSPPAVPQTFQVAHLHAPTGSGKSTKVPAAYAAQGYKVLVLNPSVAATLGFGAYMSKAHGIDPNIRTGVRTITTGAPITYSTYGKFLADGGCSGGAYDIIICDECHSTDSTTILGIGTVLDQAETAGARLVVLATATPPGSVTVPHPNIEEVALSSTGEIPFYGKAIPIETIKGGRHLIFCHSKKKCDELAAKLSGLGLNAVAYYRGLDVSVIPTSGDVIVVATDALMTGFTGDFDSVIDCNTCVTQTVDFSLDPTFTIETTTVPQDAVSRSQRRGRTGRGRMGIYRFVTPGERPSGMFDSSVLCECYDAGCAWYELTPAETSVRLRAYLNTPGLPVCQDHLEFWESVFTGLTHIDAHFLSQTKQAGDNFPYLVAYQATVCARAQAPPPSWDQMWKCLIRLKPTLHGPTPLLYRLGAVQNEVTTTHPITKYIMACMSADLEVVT

Cc1ccc2nc(-c3ccc4nc(-c5ccc(NC(=O)c6ccc7ncoc7c6)cc5)sc4c3)sc2c1S(=O)(=O)O
IC50 [1, 5]: 3.6 ± 1 µM
Cell Viability (% @ 10 μM) [2]: 114 ± 13%

Cc1ccc2nc(-c3ccc4nc(-c5ccc(NS(=O)(=O)c6ccc(C(F)(F)F)cc6)cc5)sc4c3)sc2c1S(=O)(=O)O
IC50 [1, 5]: 32 ± 16 µM
Cell Viability (% @ 10 μM) [2]: 101 ± 6%

Cc1ccc2nc(-c3ccc(NC(=O)c4ccc(C(F)(F)F)cc4)cc3)sc2c1S(=O)(=O)O
IC50 [1, 5]: > 100 µM
Cell Viability (% @ 10 μM) [2]: 102 ± 9%

Cc1ccc2nc(-c3ccc(NC(=O)c4ccc(N)cc4)cc3)sc2c1S(=O)(=O)O
IC50 [1, 5]: 69 ± 26 µM
Cell Viability (% @ 10 μM) [2]: 103 ± 6%

Cc1ccc2nc(-c3ccc(NC(=O)c4ccc(NS(=O)(=O)c5ccccc5)cc4)cc3)sc2c1S(=O)(=O)O
IC50 [1, 5]: > 100 µM
Cell Viability (% @ 10 μM) [2]: 119 ± 11%
inhibition at 100 µM [3]: 61%
EC50 [3]: > 100 µM

Cc1ccc2nc(-c3ccc(NC(=S)Nc4ccccc4Br)cc3)sc2c1
IC50 [1, 5]: > 100 µM
Cell Viability (% @ 10 μM) [2]: 39 ± 10%

Cc1ccc2nc(-c3ccc4nc(NC(=O)c5ccc6ncoc6c5)sc4c3)sc2c1
IC50 [1, 5]: 60 ± 6.1 µM
Cell Viability (% @ 10 μM) [2]: 28 ± 5%

Cc1ccc2nc(-c3ccc4nc(-c5ccc(NC(=O)c6ccccc6)cc5)sc4c3)sc2c1S(=O)(=O)O [Compound 5, 2′-(4-benzamidophenyl)-6-methyl-[2,6′-bibenzo[d]thiazole]-7-sulfonic acid]
IC50 [1, 6]: 11 ± 1.5 µM
IC50 [1, 5]: 10.7 ± 1.5 µM
IC50 [1, 7]: 11 ± 2 µM
DNA binding (%) [4]: 31 ± 13%
FID (SG) % Displaced @ 100 μM ([4]; SYBR Green): 31 ± 13%
EC50 [4, 8]: > 100 µM
Cell Viability (% @ 10 μM) [2]: 88 ± 2%
Cell viability (% viable) [2]: 88 ± 2%
IC50 [3]: 4 ± 1 µM
inhibition at 100 µM [3]: 91%
EC50 [3]: 4 ± 1 µM

Cc1ccc2nc(-c3ccc4nc(-c5ccc(NC(=O)c6ccc(N)cc6)cc5)sc4c3)sc2c1S(=O)(=O)O [Compound 6, 2′-(4-(4-aminobenzamido)phenyl)-6-methyl-[2,6′-bibenzo[d]thiazole]-7-sulfonic acid]
IC50 [1, 9]: 10 ± 2.4 µM
IC50 [1, 6]: 10 ± 2.4 µM
IC50 [1, 5]: 10.3 ± 2.4 µM
IC50 [1, 7]: 10 ± 2 µM
DNA binding (%) [4]: 63 ± 15%
FID (SG) % Displaced @ 100 μM ([4]; SYBR Green): 63 ± 15%
EC50 [4, 8]: 55 ± 13 µM
Cell Viability (% @ 10 μM) [2]: 93 ± 4%
Cell viability (% viable) [2]: 93 ± 4%
IC50 [3]: 2 ± 1 µM
inhibition at 100 µM [3]: 99%
EC50 [3]: 3 ± 1 µM

Cc1ccc2nc(-c3ccc4nc(-c5ccc(NC(=O)c6cccnc6)cc5)sc4c3)sc2c1S(=O)(=O)O [Compound 31, 6-methyl-2′-(4-(nicotinamido)phenyl)-[2,6′-bibenzo[d]thiazole]-7-sulfonic acid]
DNA binding (%) [4]: 15 ± 10%
FID (SG) % Displaced @ 100 μM ([4]; SYBR Green): 15 ± 10%
EC50 [4, 8]: > 100 µM
Cell Viability (% @ 10 μM) [2]: 113 ± 6%
Cell viability (% viable) [2]: 113 ± 6%
IC50 [3]: 173 ± 354 µM
inhibition at 100 µM [3]: 48%
EC50 [3]: > 100 µM

Cc1ccc2nc(-c3ccc4nc(-c5ccc(NC(=O)c6ccncc6)cc5)sc4c3)sc2c1S(=O)(=O)O [Compound 32, 2′-(4-(isonicotinamido)phenyl)-6-methyl-[2,6′-bibenzo[d]thiazole]-7-sulfonic acid]
DNA binding (%) [4]: 19 ± 7%
FID (SG) % Displaced @ 100 μM ([4]; SYBR Green): 19 ± 7%
EC50 [4, 8]: > 100 µM
Cell Viability (% @ 10 μM) [2]: 117 ± 5%
Cell viability (% viable) [2]: 117 ± 5%
IC50 [3]: 55 ± 20 µM
inhibition at 100 µM [3]: 63%
EC50 [3]: 55 µM

Cc1ccc2nc(-c3ccc4nc(-c5ccc(N)cc5)sc4c3)sc2c1S(=O)(=O)O [Compound P2a, 2′-(4-aminophenyl)-6-methyl-[2,6′-bibenzo[d]thiazole]-7-sulfonic acid]
IC50 [1, 9]: 45 ± 14 µM
IC50 [1, 6]: 49 µM
IC50 [1, 7]: 6 ± 2 µM
times lower affinity towards NS3 than P4 ([1]; versus P4): 10-20 times
IC50 [3]: 2 µM

Cc1ccc2nc(-c3ccc4nc(-c5ccc6nc(-c7ccc(N)cc7)sc6c5)sc4c3)sc2c1S(=O)(=O)O [Compound P3, 2″-(4-aminophenyl)-6-methyl-[2,6′:2′,6″-terbenzo[d]thiazole]-7-sulfonic acid]
IC50 [1, 6]: 0.9 ± 0.1 µM

Cc1ccc2nc(-c3ccc4nc(-c5ccc6nc(-c7ccc8nc(-c9ccc(N)cc9)sc8c7)sc6c5)sc4c3)sc2c1S(=O)(=O)O [Compound P4, 2′″-(4-aminophenyl)-6-methyl-[2,6′:2″,6′″-quaterbenzo[d]thiazole]-7-sulfonic acid]
IC50 [1, 9]: 2 ± 0.1 µM
IC50 [1, 6]: 0.8 µM
fold weaker DNA binding than potency in MBHA ([4]; DNA binding versus MBHA IC50): 17 fold
EC50 ([4]; FID, mean ± SD, read-out: DNA Binding (SYBR Green I) EC50): 15 ± 8 µM
